We go through 29 compounds from patent publication US11116212B2, “Carbonyl containing compounds for controlling and repelling Cimicidae populations” (SemiosBio Technologies Inc., priority 2011, dated 2021).

In the assay the test system is bed bugs, Cimex lectularius. The assay can be described thus: Bed bug repellency bioassay, glass tube olfactometer arena. To be noted: for pest or weed control at 5 % strength / pest or weed control at 1 % / pest or weed control at 25 % strength: Cimex lectularius; for pest or weed control at 1 %: 10 uL, 1% v/v in hexane; for % Repellency, At least One Average >50%: best average over 3 replicates for a single time period. The assay is classed as in vivo. The procedure: Per individual bioassay, 10 adult or late instar nymph bed bugs, Cimex lectularius, of mixed sex. Bed bugs sourced from wild, field populations and tested within 2 weeks of capture. Subjects were tested one time, only.
(ii) Olfactometer consisting of a glass tube. Tube ends were plugged to prevent egress of test subjects. Test substrates were placed at opposite ends of the tube. Tube Olfactometer includes a port in the centre for introduction of test subjects. Dimensions of the tube were 15.2 mm in diameter by 304.8 mm long.
Compounds were either purchased from commercial sources or synthesized using conventional synthetic organic chemistry techniques (see, for example, Examples 5 to 7). Some compounds (014, 058 and 080) were tested in duplicate (one version from commercial sources and one synthesized) and the best performance is reported in the Tables below. Of the tested compounds reported in the Tables below, the following compounds were synthesized: 006, 010, 017, 018, 040, 041 to 043, 045, 046, 048, 049, 058, 067 to 075, 079, 080 to 082, 089 and 090.
Test compounds consisted of a control and treatment. The treatment consisted of a test compound mixed as a percentage w/w in a suitable solvent. The test compound solvent itself was used as a control. Solvents used were hexane, hexane:methanol, or dichloromethane:methanol.
(i) Gauze cut to a standard size and folded upon itself to provide harbourage for test subjects.
(iii) Absorbent polymer “aroma” beads that were given sufficient time to fully absorb test compounds and control solvents.
In the case of gauze and filter paper substrates, control solvents and test mixtures of known concentrations and volumes were dispensed directly onto substrates using a pipette. For polymer beads, beads were mixed w/w with solvent or test compound in a small glass jar. The jars were occasionally agitated to facilitate soaking of the beads.
Immediately after the substrates were infused with test compounds and control solvents, test subjects were introduced to the centre of the selected observation arena. […] Only subjects that were in close contact with the treatment or control substrates were recorded. Subjects elsewhere in the arena were not included in repellency calculations. Percentage repellency was calculated based on a modification of Abbott's formula to account for negative repellency (attraction). Specifically: IF(C>=T,(C−T)/C*100,(T−C)/T*−100)
where C is number of test subjects in contact with control substrate and T is number of test subjects in contact with treatment substrate.
All average repellency results reported in the table are based on 3 replicates for each reported trial, with each trial involving at least 3 observation periods. The observation periods were short-term (30 min), medium-term (1-2 hours), and long-term (24-48 hours). The “overall average” reported in the table represents the average for 3 replicates for 3 observation periods. […]
To determine whether compounds could be combined in the repellent compositions, compounds 14 and 35 were each tested at a concentration of 5% (w/w), and as a combination comprising each compound at a concentration of 2.5% (w/w). The formulations were tested as described in Example 1 using the olfactometer configuration.

Where [1] appears, read: gauze, 50 uL, 5% w/v in hexane, average of 3 replicates x 3 observation periods, read-out: % Repellency (% R), Overall Average.
Setting [2] is: gauze, average of 3 replicates x 3 observation periods, read-out: % Repellency (% R), Overall Average.
Where [3] appears, read: gauze, best single observation (one repetition, one time), read-out: % Repellency, At least One Time >50%.
[4] abbreviates: observation period T1, gauze, read-out: % Repellency T1 (average of 3 repetitions).
The mark [5] stands for this setting: observation period T2, gauze, read-out: % Repellency T2 (average of 3 repetitions).
Setting [6] is: observation period T3, gauze, read-out: % Repellency T3 (average of 3 repetitions).
The mark [7] stands for this setting: observation period T1, gauze, 50 uL, 5% w/v in hexane, read-out: % Repellency T1 (average of 3 repetitions).
[8] abbreviates: observation period T2, gauze, 50 uL, 5% w/v in hexane, read-out: % Repellency T2 (average of 3 repetitions).
The mark [9] stands for this setting: observation period T3, gauze, 50 uL, 5% w/v in hexane, read-out: % Repellency T3 (average of 3 repetitions).
Setting [10] is: beads, 20 uL, 25% w/w in hexane, average of 3 replicates x 3 observation periods, read-out: % Repellency (% R), Overall Average.
Setting [11] is: observation period T1, beads, 20 uL, 25% w/w in hexane, read-out: % Repellency T1 (average of 3 repetitions).
The mark [12] stands for this setting: observation period T2, beads, 20 uL, 25% w/w in hexane, read-out: % Repellency T2 (average of 3 repetitions).
Setting [13] is: observation period T3, beads, 20 uL, 25% w/w in hexane, read-out: % Repellency T3 (average of 3 repetitions).
Setting [14] is: beads, 20 uL, 25% w/w in hexane.
Setting [15] is: gauze, 50 uL, 5% w/v in hexane, best single observation (one repetition, one time), read-out: % Repellency, At least One Time >50%.

The structures appear in SMILES notation. Counter-ions that a name gives are not always drawn. Like-named read-outs stand apart in the source and are kept apart here.

Regarding `CC(=O)/C=C/C=O` [Compound 001, 4-oxo-2-pentenal], under setting [1], the pest or weed control at 5 % strength worked out at 57%.
In the case of `CCCC(=O)/C=C/C=O` [Compound 003, 4-oxo-2-heptenal], the pest or weed control at 5 % strength under setting [1] was over 80%.
Take `CCC(=O)/C=C/CO` [Compound 006, (E)-6-hydroxyhex-4-en-3-one]: the pest or weed control at 1 % is -49% under setting [2]; 57% under setting [3]; -62% under setting [4]; -74% under setting [5]; -11% under setting [6].
As to `CCC(=O)OCC=O` [Compound 008, 2-oxoethyl propionate], the pest or weed control at 5 % strength under setting [1] amounted to 27%, the pest or weed control at 5 % strength under setting [7] is 12%, the pest or weed control at 5 % strength under setting [8] was 53% and the pest or weed control at 5 % strength under setting [9] amounted to 17%. In addition, the “% Repellency, At least One Average >50%” value (gauze, 50 uL, 5% w/v in hexane) is recorded as 53%.
Take `CCC(=O)COC=O` [Compound 010, 2-oxobutyl formate]: the pest or weed control at 25 % strength runs as follows: under setting [10], 45%; under setting [11], 85%; under setting [12], 42%; under setting [13], 8%. Besides, the “% Repellency, At least One Average >50%” value under setting [14] was 85%.
As to `CCC(=O)c1ccco1` [Compound 014, 1-(furan-2-yl)propan-1-one], the pest or weed control at 25 % strength under setting [10] was over 80%. Besides, for the setting “Example 2, single compound at 5% (w/w)”, the “% R (Overall Average)” value was 71%.
For the compound `C=CCOC(=O)CC` [Compound 017, allyl propionate], the pest or weed control at 1 % is 4% under setting [2]; 90% under setting [3]; -20% under setting [4]; 13% under setting [5]; 18% under setting [6].
With `CCC(=O)NCCO` [Compound 018, N-(2-hydroxyethyl) propionamide], the pest or weed control at 25 % strength worked out at 50% under setting [10], 69% under setting [11], 69% under setting [12] and 11% under setting [13]. The “% Repellency, At least One Average >50%” value under setting [14] was 69%.
Consider `CCCCCCCCCCCC(C)=O` [Compound 024, Methyl undecyl ketone (2-tridecanone)], for which the pest or weed control at 5 % strength under setting [1] was over 80%.
Regarding `CC(=O)C(C)C(C)C(C)=O` (stereo not shown) [Compound 025, 3,4-dimethyl-2,5-hexanedione], under setting [10], the pest or weed control at 25 % strength amounted to 77%.
For the compound `CCCC(=O)CC` [Compound 026, 3-Hexanone], the pest or weed control at 5 % strength reads like this: under setting [1], 15%; under setting [15], 100%; under setting [7], 44%; under setting [8], 37%; under setting [9], -36%.
With `CCC(=O)C(=O)CC` [Compound 027, 3,4-Hexanedione], the pest or weed control at 5 % strength (read-out: % Repellency (% R), Overall Average, gauze, 50 uL, 5% w/v in hexane, average of 3 replicates x 3 observation periods) was determined as 75%.
Consider `CCCCCCC(=O)CC` [Compound 028, 3-Nonanone], for which the pest or weed control at 1 % reads like this: under setting [2], -10%; under setting [3], 67%; under setting [4], -11%; under setting [5], -11%; under setting [6], -6%.
With `C=COC(=O)CC` [Compound 031, Vinyl propionate], the pest or weed control at 5 % strength under setting [1] came out at 8%; the pest or weed control at 5 % strength under setting [15] is 100%; the pest or weed control at 5 % strength under setting [7] is 45%; the pest or weed control at 5 % strength under setting [8] turned out to be 45%; the pest or weed control at 5 % strength under setting [9] was -67%.
With `CCC(=O)NC` [Compound 032, N-Methylpropionamide], the pest or weed control at 25 % strength was -9% (read-out: % Repellency (% R), Overall Average, beads, 20 uL, 25% w/w in hexane, average of 3 replicates x 3 observation periods); 39% (read-out: % Repellency T1 (average of 3 repetitions), observation period T1, beads, 20 uL, 25% w/w in hexane); -40% (read-out: % Repellency T2 (average of 3 repetitions), observation period T2, beads, 20 uL, 25% w/w in hexane); -25% (read-out: % Repellency T3 (average of 3 repetitions), observation period T3, beads, 20 uL, 25% w/w in hexane); 100% (read-out: % Repellency, At least One Time >50%, beads, 20 uL, 25% w/w in hexane, best single observation (one repetition, one time)).
For `CCC(=O)CC(=O)OC` [Compound 034, Methyl 3-oxovalerate], the pest or weed control at 5 % strength runs as follows: under setting [1], 27%; under setting [7], 81%; under setting [8], 94%; under setting [9], -94%. Moreover, under “gauze, 50 uL, 5% w/v in hexane”, the “% Repellency, At least One Average >50%” value was 94%.
As for `CCCCCC=O` [Compound 037, hexanal], the pest or weed control at 5 % strength under setting [1] was 79%.
As to `CCC/C=C/C=O` [Compound 038, trans-2-hexen-1-al], the pest or weed control at 5 % strength under setting [1] was 72%.
The same measure, in the same setting: with `CCCCC/C=C/C=O` [Compound 039, trans-2-octenal] the figure was 78%; with `CCC(=O)/C=C/c1ccco1` [Compound 040, (E)-1-(furan-2-yl)pent-1-en-3-one], over 80%.
Turning to `CCCCC(=O)/C=C/CO` [Compound 041, (E)-1-hydroxyoct-2-en-4-one], the pest or weed control at 5 % strength under setting [1] is over 80%.
The same measure, in the same setting: with `CCC(=O)/C=C/C(C)O` (stereo not shown) [Compound 042, (E)-6-hydroxyhept-4-en-3-one] the figure was 76%; with `C=CCNC(=O)CC` [Compound 043, N-allylpropionamide], 59%.
The same measure, in the same setting: the figure for `CC(=O)CC/C=C(\C)CCC=C(C)C` [Compound 044, 6,10-dimethyl-5,9-undecadien-2-one] is over 80%; for `CCC(=O)NCC(OC)OC` [Compound 045, N-(2,2-dimethoxyethyl) propionamide] it is 70%; for `CCCC(=O)/C=C/CO` [Compound 046, (E)-1-hydroxyhept-2-en-4-one] it is 65%.
The same measure, in the same setting: the figure for `CCC(=O)/C(C)=C/c1ccco1` [Compound 048, (E)-1-(furan-2-yl)-2-methylpent-1-en-3-one] is over 80%.
Turning to `CCC(=O)N(C)CC(OC)OC` [Compound 049, N-(2,2-dimethoxyethyl)-N-methylpropionamide], the pest or weed control at 1 % under setting [2] was determined as 78%.
With `CCCC(=O)CCC` [Compound 051, 4-heptanone], under setting [10], the pest or weed control at 25 % strength is over 80%.
